Columns and labels:
Format in all cases: in vivo
Cyperus [1] = experiment: Pre-emergent herbicidal action; settings: 2000 g AS/ha sprayed immediately after sowing; evaluated 3 weeks later; rating scale 1-9 (1=total damage, 9=no action)
Text: (§1) Monocot and dicot test plants are sown in standard soil in plastic pots. Immediately after sowing, the plants are sprayed at a concentration of 2 kg active substance/ha with an aqueous suspension of the test compound [prepared from a 25% wettable powder (Example F3, b) in accordance with WO 97/34485] or an emulsion of the test compound [prepared from a 25% emulsifiable concentrate (Example Fl c)] (500 l of water/ha). The test plants are then cultivated in the greenhouse under optimum conditions. The test is evaluated 3 weeks later on a rating scale of 1-9 (1=total damage, 9=no action). Ratings of 1 to 4 (especially of 1 to 3) denote good to very good herbicidal action.

Stellaria [2] = experiment: Pre-emergent herbicidal action; settings: 2000 g AS/ha sprayed immediately after sowing; evaluated 3 weeks later; rating scale 1-9 (1=total damage, 9=no action)
Text: as §1

Setaria [3] = experiment: Pre-emergent herbicidal action; settings: 2000 g AS/ha sprayed immediately after sowing; evaluated 3 weeks later; rating scale 1-9 (1=total damage, 9=no action)
Text: as §1

Sinapsis [4] = experiment: Pre-emergent herbicidal action; settings: 2000 g AS/ha sprayed immediately after sowing; evaluated 3 weeks later; rating scale 1-9 (1=total damage, 9=no action)
Text: as §1

Solanig [5] = experiment: Pre-emergent herbicidal action; settings: 2000 g AS/ha sprayed immediately after sowing; evaluated 3 weeks later; rating scale 1-9 (1=total damage, 9=no action)
Text: as §1

Cyperus [6] = experiment: Post-emergent herbicidal action; settings: 2000 g AS/ha sprayed in the 4- to 6-leaf stage; evaluated about 18 days later; rating scale 1-9 (1=total damage, 9=no action)
Text: (§2) In a greenhouse, monocot and dicot test plants are sown in standard soil in plastic pots and sprayed in the 4- to 6-leaf stage with an aqueous suspension of the test compounds of formula I prepared from a 25% wettable powder [Example F3, b) of WO 97/34485] or with an emulsion of the test compound of formula I prepared from a 25% emulsifiable concentrate [Example F1 c) of WO 97/34485] at a concentration of 2 kg active substance/ha (500 l of water/ha). The test plants are then further cultivated in the greenhouse under optimum conditions. The test is evaluated about 18 days later on a rating scale of 1-9 (1=total damage, 9=no action). Ratings of 1 to 4 (especially of 1 to 3) denote good to very good herbicidal action.

Stellaria [7] = experiment: Post-emergent herbicidal action; settings: 2000 g AS/ha sprayed in the 4- to 6-leaf stage; evaluated about 18 days later; rating scale 1-9 (1=total damage, 9=no action)
Text: as §2

Setaria [8] = experiment: Post-emergent herbicidal action; settings: 2000 g AS/ha sprayed in the 4- to 6-leaf stage; evaluated about 18 days later; rating scale 1-9 (1=total damage, 9=no action)
Text: as §2

Sinapsis [9] = experiment: Post-emergent herbicidal action; settings: 2000 g AS/ha sprayed in the 4- to 6-leaf stage; evaluated about 18 days later; rating scale 1-9 (1=total damage, 9=no action)
Text: as §2

Solanig [10] = experiment: Post-emergent herbicidal action; settings: 2000 g AS/ha sprayed in the 4- to 6-leaf stage; evaluated about 18 days later; rating scale 1-9 (1=total damage, 9=no action)
Text: as §2

## COCc1c(S(C)(=O)=O)ccc(C(=O)C2=C(O)C3CCC(C3)C2=O)c1C (centres unmarked) [1,001, 4-hydroxy-3-(4-methylsulphonyl-3-methoxymethyl-2-methyl-benzoyl)-bicyclo[3.2.1]oct-3-en-2-one]
Cyperus [1]
  Pre-emergent action, test plant Cyperus, rating: 3
Stellaria [2]
  Pre-emergent action, test plant Stellaria, rating: 2
Setaria [3]
  Pre-emergent action, test plant Setaria, rating: 3
Sinapsis [4]
  Pre-emergent action, test plant Sinapsis, rating: 3
Solanig [5]
  Pre-emergent action, test plant Solanig, rating: 2
Cyperus [6]
  Post-emergent action, test plant Cyperus, rating: 3
Stellaria [7]
  Post-emergent action, test plant Stellaria, rating: 2
Setaria [8]
  Post-emergent action, test plant Setaria, rating: 2
Sinapsis [9]
  Post-emergent action, test plant Sinapsis, rating: 2
Solanig [10]
  Post-emergent action, test plant Solanig, rating: 2

## COCc1c(S(C)(=O)=O)ccc(C(=O)C2=C(O)C(C)(C)ON(C)C2=O)c1C [2,001, 5-hydroxy-4-(4-methylsulphonyl-3-methoxymethyl-2-methyl-benzoyl)-2,6,6-trimethyl-6.H.-[1,2]oxazin-3-one]
Cyperus [1]
  Pre-emergent action, test plant Cyperus, rating: 3
Stellaria [2]
  Pre-emergent action, test plant Stellaria, rating: 2
Setaria [3]
  Pre-emergent action, test plant Setaria, rating: 3
Sinapsis [4]
  Pre-emergent action, test plant Sinapsis, rating: 2
Solanig [5]
  Pre-emergent action, test plant Solanig, rating: 2
Cyperus [6]
  Post-emergent action, test plant Cyperus, rating: 3
Stellaria [7]
  Post-emergent action, test plant Stellaria, rating: 4
Setaria [8]
  Post-emergent action, test plant Setaria, rating: 3
Sinapsis [9]
  Post-emergent action, test plant Sinapsis, rating: 2
Solanig [10]
  Post-emergent action, test plant Solanig, rating: 2
